Source: patent US6995143B2, “Macrolides with antibacterial activity” (Basilea Pharmaceutica AG, priority 2002, dated 2006)
Values after ≈ are worked out from the molar mass of the structure shown.

Key:
Type in all cases: cell-based
[1] = tested on: Streptococcus pneumoniae SL199T; assay: MIC, standard microdilution technique; details: for MIC: read-out: minimum inhibitory concentration (MIC), Strain G
Excerpt: (§1) The antibacterial activities of the compounds have been determined by standard microdilution technique (National Committee for Clinical Laboratory Standards. 2000. Methods for Dilution Antimicrobial Susceptibility Tests for Bacteria that Grow Aerobically, 5th edition. Approved standard M7-A5. National Committee for Clinical Laboratory Standards, Wayne, Pa.).

[2] = tested on: Staphylococcus aureus ATCC 29213; assay: MIC, standard microdilution technique; details: for MIC: ATCC29213, read-out: minimum inhibitory concentration (MIC), Strain A
Excerpt: as §1

[3] = tested on: Staphylococcus aureus 745; assay: MIC, standard microdilution technique; details: for MIC: read-out: minimum inhibitory concentration (MIC), Strain C
Excerpt: as §1

[4] = tested on: Staphylococcus aureus 1086; assay: MIC, standard microdilution technique; details: for MIC: read-out: minimum inhibitory concentration (MIC), Strain B
Excerpt: as §1

[5] = tested on: Streptococcus pneumoniae 12288; assay: MIC, standard microdilution technique; details: for MIC: read-out: minimum inhibitory concentration (MIC), Strain H
Excerpt: as §1

[6] = tested on: Escherichia coli ATCC 25922; assay: MIC, standard microdilution technique; details: for MIC: ATCC25922, read-out: minimum inhibitory concentration (MIC), Strain D
Excerpt: as §1

[7] = tested on: Streptococcus pneumoniae ¼; assay: MIC, standard microdilution technique; details: for MIC: read-out: minimum inhibitory concentration (MIC), Strain F
Excerpt: as §1

[8] = tested on: Streptococcus pneumoniae l/l; assay: MIC, standard microdilution technique; details: for MIC: read-out: minimum inhibitory concentration (MIC), Strain E
Excerpt: as §1

[9] = tested on: Haemophilus influenzae 12214; assay: MIC, standard agar dilution method using HTM medium; details: for MIC: read-out: minimum inhibitory concentration (MIC), Strain K
Excerpt: as §1, with “biological” for “antibacterial”, “of compounds of” for “of”, “present invention against Haemophilus influenzae” for “compounds”, “agar dilution method using HTM medium” for “microdilution technique”

[10] = tested on: Haemophilus influenzae QK50; assay: as above; details: for MIC: read-out: minimum inhibitory concentration (MIC), Strain L
Excerpt: as §1, with “biological” for “antibacterial”, “of compounds of” for “of”, “present invention against Haemophilus influenzae” for “compounds”, “agar dilution method using HTM medium” for “microdilution technique”

[11] = tested on: Haemophilus influenzae B1501; assay: as above; details: for MIC: read-out: minimum inhibitory concentration (MIC), Strain M
Excerpt: as §1, with “biological” for “antibacterial”, “of compounds of” for “of”, “present invention against Haemophilus influenzae” for “compounds”, “agar dilution method using HTM medium” for “microdilution technique”

[12] = tested on: Haemophilus influenzae QK12/87; assay: as above; details: for MIC: read-out: minimum inhibitory concentration (MIC), Strain I
Excerpt: as §1, with “biological” for “antibacterial”, “of compounds of” for “of”, “present invention against Haemophilus influenzae” for “compounds”, “agar dilution method using HTM medium” for “microdilution technique”

minimum inhibitory concentration (MIC), Strain G [1] | minimum inhibitory concentration (MIC), Strain A [2] | minimum inhibitory concentration (MIC), Strain C [3] | minimum inhibitory concentration (MIC), Strain B [4] | minimum inhibitory concentration (MIC), Strain H [5] | minimum inhibitory concentration (MIC), Strain D [6] | minimum inhibitory concentration (MIC), Strain F [7] | minimum inhibitory concentration (MIC), Strain E [8] | minimum inhibitory concentration (MIC), Strain K [9] | minimum inhibitory concentration (MIC), Strain L [10] | minimum inhibitory concentration (MIC), Strain M [11] | minimum inhibitory concentration (MIC), Strain I [12] | SMILES | also measured
4 µg/mL (≈ 4.41 µM) | 0.125 µg/mL (≈ 0.138 µM) | >32 µg/mL | <=0.06 μg/ml | 8 µg/mL (≈ 8.81 µM) | >32 µg/mL | 0.125 µg/mL (≈ 0.138 µM) | <=0.06 μg/ml | 16 µg/mL (≈ 17.6 µM) | 8 µg/mL (≈ 8.81 µM) | 8 µg/mL (≈ 8.81 µM) | 8 µg/mL (≈ 8.81 µM) | CC[C@H]1OC(=O)[C@H](C)C(=O)[C@H](C)[C@@H](O[C@@H]2O[C@H](C)C[C@H](N(C)C)[C@H]2O)[C@](C)(OC)C[C@@H](C)C(=O)[C@H](C)[C@H]2[C@@H](SCCNc3nc(C)nc4ccc(Br)cc34)C(=O)O[C@@]21C [Example 52] | 
16 µg/mL (≈ 19.2 µM) | 0.125 µg/mL (≈ 0.15 µM) | >32 µg/mL | <=0.06 μg/ml | >32 µg/mL | >32 µg/mL | 32 µg/mL (≈ 38.3 µM) | <=0.06 μg/ml | 16 µg/mL (≈ 19.2 µM) | 16 µg/mL (≈ 19.2 µM) | 8 µg/mL (≈ 9.58 µM) | 16 µg/mL (≈ 19.2 µM) | CC[C@H]1OC(=O)[C@H](C)C(=O)[C@H](C)[C@@H](O[C@@H]2O[C@H](C)C[C@H](N(C)C)[C@H]2O)[C@](C)(OC)C[C@@H](C)C(=O)[C@H](C)[C@H]2[C@@H](SCC(=O)NCc3ccc4c(c3)OCO4)C(=O)O[C@@]21C [Example 30] | 

Continued, compound first:

SMILES | minimum inhibitory concentration (MIC), Strain G [1] | minimum inhibitory concentration (MIC), Strain A [2] | minimum inhibitory concentration (MIC), Strain C [3] | minimum inhibitory concentration (MIC), Strain B [4] | minimum inhibitory concentration (MIC), Strain H [5] | minimum inhibitory concentration (MIC), Strain D [6] | minimum inhibitory concentration (MIC), Strain F [7] | minimum inhibitory concentration (MIC), Strain E [8] | minimum inhibitory concentration (MIC), Strain K [9] | minimum inhibitory concentration (MIC), Strain L [10] | minimum inhibitory concentration (MIC), Strain M [11] | minimum inhibitory concentration (MIC), Strain I [12] | also measured
CC[C@H]1OC(=O)[C@@](C)(F)C(=O)[C@H](C)[C@@H](O[C@@H]2O[C@H](C)C[C@H](N(C)C)[C@H]2O)[C@](C)(OC)C[C@@H](C)C(=O)[C@H](C)[C@H]2[C@@H]([S+]([O-])CCCn3cnc4c(N)ncnc43)C(=O)O[C@@]21C (single isomer, unassigned) [Example 57] | 1 µg/mL (≈ 1.17 µM) | 2 µg/mL (≈ 2.34 µM) | >32 µg/mL | 2 µg/mL (≈ 2.34 µM) | 32 µg/mL (≈ 37.5 µM) | >32 µg/mL | 0.125 µg/mL (≈ 0.147 µM) | <=0.06 μg/ml | 8 µg/mL (≈ 9.38 µM) | 8 µg/mL (≈ 9.38 µM) | 4 µg/mL (≈ 4.69 µM) | 4 µg/mL (≈ 4.69 µM) | 
CC[C@H]1OC(=O)[C@@](C)(F)C(=O)[C@H](C)[C@@H](O[C@@H]2O[C@H](C)C[C@H](N(C)C)[C@H]2O)[C@](C)(OC)C[C@@H](C)C(=O)[C@H](C)[C@H]2[C@@H](SCc3ccc(OC)cc3)C(=O)O[C@@]21C (single isomer, unassigned) [Example 1, (3R or S, 3aR, 4R or S, 6R, 8R, 9R, 10R, 12S, 15R, 15aS)-15-Ethyl-12-fluorooctahydro-8-methoxy-3-[[(4-methoxyphenyl)methyl]thio]-4,6,8,10,12,15a-hexamethyl-9-[[3,4,6-trideoxy-3-(dimethylamino)-β-D-xylo-hexopyranosyl]oxy]-2H-furo [2,3-c] oxacyclotetradecin-2,5,11,13 (3H,6H,12H)-tetrone] |  |  |  |  |  |  |  |  |  |  |  |  | MIC [1]: 32 µg/mL (≈ 40.9 µM); MIC [2]: 2 µg/mL (≈ 2.56 µM); MIC [3]: > 32 µg/mL; MIC [4]: 2 µg/mL (≈ 2.56 µM); MIC [5]: > 32 µg/mL; MIC [6]: > 32 µg/mL; MIC [7]: 8 µg/mL (≈ 10.2 µM); MIC [8]: 0.5 µg/mL (≈ 0.639 µM); MIC [9]: > 32 µg/mL; MIC [10]: 32 µg/mL (≈ 40.9 µM); MIC [11]: 32 µg/mL (≈ 40.9 µM); MIC [12]: > 32 µg/mL
CC[C@H]1OC(=O)[C@H](C)C(=O)[C@H](C)[C@@H](O[C@@H]2O[C@H](C)C[C@H](N(C)C)[C@H]2O)[C@](C)(OC)C[C@@H](C)C(=O)[C@H](C)[C@H]2[C@@H](SCC#Cc3ccc(C#N)cc3)C(=O)O[C@@]21C (single isomer, unassigned) [Example 23] | >32 µg/mL | 16 µg/mL (≈ 20.4 µM) | >32 µg/mL | 16 µg/mL (≈ 20.4 µM) | >32 µg/mL | >32 µg/mL | >32 µg/mL | 1 µg/mL (≈ 1.28 µM) | >32 µg/mL | >32 µg/mL | >32 µg/mL | >32 µg/mL | 
CC[C@H]1OC(=O)[C@H](C)C(=O)[C@H](C)[C@@H](O[C@@H]2O[C@H](C)C[C@H](N(C)C)[C@H]2O)[C@](C)(OC)C[C@@H](C)C(=O)[C@H](C)[C@H]2[C@@H](SCCNC(=O)c3cnc4ccccc4c3)C(=O)O[C@@]21C (single isomer, unassigned) [Example 27, (3R or S, 3aR, 4R or S, 6R, 8R, 9R, 10R, 12R, 15R, 15aS)-15-Ethyloctahydro-8-methoxy-4,6,8,10,12,15a-hexamethyl-3-[[2-[(3-quinolinylcarbonyl)amino]ethyl]thio]-9-[[3,4,6-trideoxy-3-(dimethylamino)-β-D-xylo-hexopyranosyl]oxy]-2H-furo [2,3-c] oxacyclotetradecin-2,5,11,13 (3H,6H,12H)-tetrone] |  |  |  |  |  |  |  |  |  |  |  |  | MIC [1]: 8 µg/mL (≈ 9.5 µM); MIC [2]: ≤ 0.06 µg/mL; MIC [3]: > 32 µg/mL; MIC [4]: ≤ 0.06 µg/mL; MIC [5]: > 32 µg/mL; MIC [6]: > 32 µg/mL; MIC [7]: 8 µg/mL (≈ 9.5 µM); MIC [8]: ≤ 0.06 µg/mL; MIC [9]: 16 µg/mL (≈ 19 µM); MIC [10]: 16 µg/mL (≈ 19 µM); MIC [11]: 8 µg/mL (≈ 9.5 µM); MIC [12]: 16 µg/mL (≈ 19 µM)
CC[C@H]1OC(=O)[C@H](C)C(=O)[C@H](C)[C@@H](O[C@@H]2O[C@H](C)C[C@H](N(C)C)[C@H]2O)[C@](C)(OC)C[C@@H](C)C(=O)[C@H](C)[C@H]2[C@@H](SCC(=O)OC)C(=O)O[C@@]21C (single isomer, unassigned) [Example 5] | >32 µg/mL | 1 µg/mL (≈ 1.4 µM) | >32 µg/mL | 1 µg/mL (≈ 1.4 µM) | >32 µg/mL | >32 µg/mL | >32 µg/mL | 0.125 µg/mL (≈ 0.175 µM) | 32 µg/mL (≈ 44.7 µM) | 32 µg/mL (≈ 44.7 µM) | 16 µg/mL (≈ 22.3 µM) | 32 µg/mL (≈ 44.7 µM) | 
CC[C@H]1OC(=O)[C@H](C)C(=O)[C@H](C)[C@@H](O[C@@H]2O[C@H](C)C[C@H](N(C)C)[C@H]2O)[C@](C)(OC)C[C@@H](C)C(=O)[C@H](C)[C@H]2[C@@H](SSc3ncccc3[N+](=O)[O-])C(=O)O[C@@]21C (single isomer, unassigned) [Example 3] | 32 µg/mL (≈ 40.1 µM) | 2 µg/mL (≈ 2.51 µM) | >32 µg/mL | 2 µg/mL (≈ 2.51 µM) | >32 µg/mL | >32 µg/mL | 16 µg/mL (≈ 20.1 µM) | <=0.06 μg/ml | >32 µg/mL | >32 µg/mL | >32 µg/mL | >32 µg/mL | 
CC[C@H]1OC(=O)[C@@](C)(F)C(=O)[C@H](C)[C@@H](O[C@@H]2O[C@H](C)C[C@H](N(C)C)[C@H]2O)[C@](C)(OC)C[C@@H](C)C(=O)[C@H](C)[C@H]2[C@@H](SCC(=O)Nc3cccc4cccnc34)C(=O)O[C@@]21C (single isomer, unassigned) [Example 25] | 2 µg/mL (≈ 2.36 µM) | 0.25 µg/mL (≈ 0.295 µM) | 32 µg/mL (≈ 37.8 µM) | 0.125 µg/mL (≈ 0.148 µM) | 4 µg/mL (≈ 4.73 µM) | >32 µg/mL | 0.125 µg/mL (≈ 0.148 µM) | <=0.06 μg/ml | 4 µg/mL (≈ 4.73 µM) | 4 µg/mL (≈ 4.73 µM) | 8 µg/mL (≈ 9.46 µM) | 8 µg/mL (≈ 9.46 µM) | 
